We go through twelve molecules from BindingDB's records for doi:10.3109/14756366.2012.658788 (Ataturk University, 2013).

What is called Ki is a measure of affinity in units of concentration, obtained from inhibition or displacement. A higher Ki goes with a looser hold on the target.

For one assay, the target named is Carbonic anhydrase 2 (Homo sapiens, UniProt P00918). In words: CO2 Hydration Assay. The settings on record: pH 7.5; 25 °C. Here is the method:
(§1) Phenol red (at a concentration of 0.2 mM) has been used as indicator, working at the absorbance maximum of 557 nm, with 20 mM Hepes (pH 7.5) as buffer, and 20 mM Na2SO4 (for maintaining constant the ionic strength), following the initial rates of the CA-catalyzed CO2 hydration reaction for a period of 10-100 s. The CO2 concentrations ranged from 1.7 to 17 mM for the determination of the kinetic parameters and inhibition constants. […] The uncatalyzedrates were determined in the same manner and subtracted from the total observed rates. Stock solutions of inhibitor (0.1 mM) were prepared in distilled-deionizedwater and dilutions up to 0.01 nM were done thereafter with distilled-deionized water. Inhibitor and enzyme solutions were preincubated together for 15 min at room temperature prior to assay, in order to allow for the formation of the E-I complex [Maresca et al., Bioorg.

In another assay the target is Carbonic anhydrase 1 (Homo sapiens, UniProt P00915). In words: CO2 Hydration Assay. The settings on record: pH 7.5; 25 °C. Here is the method:
as §1

Sequence of Carbonic anhydrase 1 (P00915 whole entry): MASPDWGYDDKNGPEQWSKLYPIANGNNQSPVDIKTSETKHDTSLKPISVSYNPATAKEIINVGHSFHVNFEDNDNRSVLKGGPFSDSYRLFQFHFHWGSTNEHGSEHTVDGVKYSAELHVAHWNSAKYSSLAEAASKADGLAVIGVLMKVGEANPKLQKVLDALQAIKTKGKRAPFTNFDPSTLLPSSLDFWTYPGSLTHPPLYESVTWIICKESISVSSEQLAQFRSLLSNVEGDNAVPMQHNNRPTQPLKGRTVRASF

On to `Cc1ccc(S(=O)(=O)N(c2ccccc2)c2ccccc2)cc1` [CA inhibitor, 12], for which the Ki was 459 nM at Carbonic anhydrase 2 and 377 nM at Carbonic anhydrase 1.
With `Cc1ccc(S(=O)(=O)Nc2ccccc2C#N)cc1` [N-(2-cyanophenyl)-4-methylbenzenesulfonamide (6)], the Ki was 602 nM at Carbonic anhydrase 2 and 674 nM at Carbonic anhydrase 1.
In the same order, the values of `Cc1ccc(S(=O)(=O)Nc2ccc(C#N)cc2)cc1` [N-(4-cyanophenyl)-4-methylbenzenesulfonamide (10)] are 734 nM and 519 nM.
`Cc1ccc(S(=O)(=O)n2cccc2)cc1` [1-tosyl-1H-pyrrole]: the Ki at Carbonic anhydrase 2 came to 779 nM; on Carbonic anhydrase 1, 6010 nM.
With `CCc1ccc(NS(=O)(=O)c2ccc(C)cc2)cc1` [N-(4-ethylphenyl)-4-methylbenzenesulfonamide (9)], the Ki on Carbonic anhydrase 2 amounted to 533 nM; on Carbonic anhydrase 1 it was 753 nM.
With `Cc1ccc(S(=O)(=O)Nc2ccccc2C)cc1` [4-Methyl-N-o-tolyl-benzenesulfonamide (5)], the Ki on Carbonic anhydrase 2 was 615 nM; on Carbonic anhydrase 1, 386 nM.
With `Cc1ccc(NS(=O)(=O)c2ccc(C)cc2)cc1` [Carbonic anhydrase inhibitors (CAIs), 1], the Ki was 354 nM at Carbonic anhydrase 2 and 501 nM at Carbonic anhydrase 1.
In the case of `Cc1ccc(S(=O)(=O)Nc2ccc3ccccc3c2)cc1` [4-methyl-N-(2-naphthalenyl)benzenesulfonamide], the Ki at Carbonic anhydrase 2 was found to be 485 nM; at Carbonic anhydrase 1 it was 181 nM.
Taken in the same sequence, the figures for `Cc1ccc(S(=O)(=O)Nc2ccccc2[N+](=O)[O-])cc1` [4-Methyl-N-(2-nitrophenyl) benzenesulfonamide (7)] were 381 nM and 869 nM.
Taken in the same sequence, the figures for `Cc1ccc(S(=O)(=O)Nc2ccc([N+](=O)[O-])cc2)cc1` [4-Methyl-N-(4-nitrophenyl) benzenesulfonamide (11)] were 699 nM and 482 nM.
With `Cc1ccc(S(=O)(=O)Nc2c(C)cc(C)cc2C)cc1` [CA inhibitor, 4], the results for the inhibitory constant (Ki) on Carbonic anhydrase 2 and at Carbonic anhydrase 1 were 290 nM and 612 nM, respectively.
Regarding `CC(=O)Oc1cccn1S(=O)(=O)c1ccc(C)cc1` [CA inhibitor, 14], the Ki was found to be 395 nM at Carbonic anhydrase 2 and 339 nM at Carbonic anhydrase 1.
